Assays:
[1] = biological target: Serine/threonine-protein kinase 26 (Homo sapiens) (UniProt Q9P289); experiment: Selectivity interaction (KinomeScan (DiscoverX)) EUB0000178b STK26; details: at 1 µM
[2] = biological target: Dual specificity protein kinase TTK (Homo sapiens) (UniProt P33981); experiment: Selectivity interaction (KinomeScan (DiscoverX)) EUB0000138c TTK; details: at 100 nM
[3] = biological target: T1, Tyrosine-protein kinase JAK3 (Homo sapiens) (UniProt P52333); experiment: Selectivity interaction (KinomeScan (DiscoverX)) EUB0000138c JAK3; details: at 100 nM
T1 sequence (whole entry): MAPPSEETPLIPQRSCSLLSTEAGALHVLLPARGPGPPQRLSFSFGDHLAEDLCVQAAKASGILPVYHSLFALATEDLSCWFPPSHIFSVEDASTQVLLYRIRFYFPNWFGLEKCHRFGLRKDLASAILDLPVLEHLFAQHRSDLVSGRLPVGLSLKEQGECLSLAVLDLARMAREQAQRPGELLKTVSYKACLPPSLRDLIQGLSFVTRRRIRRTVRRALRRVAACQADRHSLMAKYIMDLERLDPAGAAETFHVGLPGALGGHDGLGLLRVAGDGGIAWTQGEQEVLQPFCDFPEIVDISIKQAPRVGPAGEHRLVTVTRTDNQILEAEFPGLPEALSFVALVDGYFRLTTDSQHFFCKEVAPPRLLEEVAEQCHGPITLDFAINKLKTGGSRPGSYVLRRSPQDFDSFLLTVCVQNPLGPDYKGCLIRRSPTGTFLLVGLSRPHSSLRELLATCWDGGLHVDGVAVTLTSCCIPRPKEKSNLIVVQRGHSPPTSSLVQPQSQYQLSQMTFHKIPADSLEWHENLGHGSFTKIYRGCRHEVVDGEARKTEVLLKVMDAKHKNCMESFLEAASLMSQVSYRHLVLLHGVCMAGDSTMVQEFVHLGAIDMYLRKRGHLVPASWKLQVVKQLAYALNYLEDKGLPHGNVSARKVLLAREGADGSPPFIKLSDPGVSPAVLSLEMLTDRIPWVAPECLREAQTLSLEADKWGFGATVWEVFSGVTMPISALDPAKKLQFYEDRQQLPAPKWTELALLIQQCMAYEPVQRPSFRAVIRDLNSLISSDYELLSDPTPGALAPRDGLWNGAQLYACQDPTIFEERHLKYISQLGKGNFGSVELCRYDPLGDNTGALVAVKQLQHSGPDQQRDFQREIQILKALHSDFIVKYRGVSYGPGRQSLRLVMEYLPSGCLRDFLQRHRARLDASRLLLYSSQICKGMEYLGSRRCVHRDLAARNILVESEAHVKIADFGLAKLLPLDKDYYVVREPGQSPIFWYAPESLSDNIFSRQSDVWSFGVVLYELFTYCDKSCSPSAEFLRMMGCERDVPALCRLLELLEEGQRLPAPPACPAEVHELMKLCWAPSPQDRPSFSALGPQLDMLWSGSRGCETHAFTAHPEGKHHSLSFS

[4] = biological target: Platelet-derived growth factor receptor beta (Homo sapiens, UniProt P09619); experiment: Selectivity interaction (KinomeScan (DiscoverX)) EUB0000698a PDGFRB; details: at 10 µM
[5] = biological target: Rho-associated protein kinase 1 (Homo sapiens) (UniProt Q13464); experiment: Selectivity interaction (KinomeScan (DiscoverX)) EUB0000698a ROCK1; details: at 10 µM
[6] = biological target: Death-associated protein kinase 1 (Homo sapiens) (UniProt P53355); experiment: Selectivity interaction (KinomeScan (DiscoverX)) EUB0000698a DAPK1; details: at 10 µM
[7] = biological target: Proto-oncogene tyrosine-protein kinase Src (Homo sapiens, UniProt P12931); details: at 1 µM
[8] = biological target: Tyrosine-protein kinase HCK (Homo sapiens, UniProt P08631); details: at 1 µM
[9] = biological target: Macrophage-stimulating protein receptor (Homo sapiens) (UniProt Q04912); details: at 1 µM
[10] = biological target: Bone morphogenetic protein receptor type-1B (Homo sapiens) (UniProt O00238); experiment: Selectivity interaction (KinomeScan (DiscoverX)) EUB0000702a BMPR1B; details: at 1 µM
[11] = biological target: Serine/threonine-protein kinase WNK4 (Homo sapiens) (UniProt Q96J92); experiment: Selectivity interaction (KinomeScan (DiscoverX)) EUB0000702a WNK4; details: at 1 µM
[12] = biological target: Serine/threonine-protein kinase ULK1 (Homo sapiens) (UniProt O75385); experiment: Selectivity interaction (KinomeScan (DiscoverX)) EUB0000702a ULK1; details: at 1 µM
[13] = biological target: G protein-coupled receptor kinase 4 (Homo sapiens) (UniProt P32298); experiment: Selectivity interaction (KinomeScan (DiscoverX)) EUB0000702a GRK4; details: at 1 µM
[14] = biological target: Dual specificity protein kinase CLK4 (Homo sapiens) (UniProt Q9HAZ1); experiment: Selectivity interaction (KinomeScan (DiscoverX)) EUB0000702a CLK4; details: at 1 µM
[15] = biological target: Serine/threonine-protein phosphatase 2A activator (Homo sapiens) (UniProt Q15257); experiment: Selectivity interaction (Kinase panel (University of Dundee)) EUB0000169b PTPA; details: at 10 µM
[16] = biological target: Casein kinase I isoform alpha (Homo sapiens) (UniProt P48729); details: at 10 µM
[17] = biological target: Rho-associated protein kinase 2 (Homo sapiens) (UniProt O75116); experiment: Selectivity interaction (Kinase panel (University of Dundee)) EUB0000169b ROCK2; details: at 10 µM
[18] = biological target: T2, Phosphatidylinositol 5-phosphate 4-kinase type-2 gamma (Homo sapiens) (UniProt Q8TBX8); experiment: Selectivity interaction (KinomeScan (DiscoverX)) EUB0000169b PIP4K2C; details: at 1 µM
T2 sequence (whole entry): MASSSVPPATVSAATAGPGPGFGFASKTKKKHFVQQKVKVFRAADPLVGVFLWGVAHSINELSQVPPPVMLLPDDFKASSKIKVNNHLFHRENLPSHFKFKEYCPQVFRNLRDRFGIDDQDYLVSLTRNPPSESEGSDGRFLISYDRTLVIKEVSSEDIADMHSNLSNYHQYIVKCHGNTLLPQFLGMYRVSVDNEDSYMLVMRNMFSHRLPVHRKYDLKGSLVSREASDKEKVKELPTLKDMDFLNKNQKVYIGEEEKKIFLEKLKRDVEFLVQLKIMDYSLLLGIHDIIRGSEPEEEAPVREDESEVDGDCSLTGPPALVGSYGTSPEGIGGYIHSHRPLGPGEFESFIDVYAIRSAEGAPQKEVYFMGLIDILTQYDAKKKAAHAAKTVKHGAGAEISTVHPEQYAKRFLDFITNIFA

Sequence of Dual specificity protein kinase CLK4 (Homo sapiens) (Q9HAZ1 whole entry, looked up): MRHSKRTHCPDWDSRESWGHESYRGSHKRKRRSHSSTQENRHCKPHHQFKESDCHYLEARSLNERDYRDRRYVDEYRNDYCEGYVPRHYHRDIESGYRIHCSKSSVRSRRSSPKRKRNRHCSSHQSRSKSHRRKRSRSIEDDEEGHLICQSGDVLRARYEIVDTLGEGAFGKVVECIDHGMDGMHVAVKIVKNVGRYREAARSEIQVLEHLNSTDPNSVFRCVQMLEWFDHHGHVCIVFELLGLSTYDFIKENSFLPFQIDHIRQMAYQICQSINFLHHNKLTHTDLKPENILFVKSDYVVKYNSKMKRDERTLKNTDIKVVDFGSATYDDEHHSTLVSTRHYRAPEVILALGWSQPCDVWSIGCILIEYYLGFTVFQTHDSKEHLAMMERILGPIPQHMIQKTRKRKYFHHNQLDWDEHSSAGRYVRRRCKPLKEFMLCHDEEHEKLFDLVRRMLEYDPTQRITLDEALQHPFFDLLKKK
Sequence of Death-associated protein kinase 1 (Homo sapiens) (P53355 whole entry, looked up): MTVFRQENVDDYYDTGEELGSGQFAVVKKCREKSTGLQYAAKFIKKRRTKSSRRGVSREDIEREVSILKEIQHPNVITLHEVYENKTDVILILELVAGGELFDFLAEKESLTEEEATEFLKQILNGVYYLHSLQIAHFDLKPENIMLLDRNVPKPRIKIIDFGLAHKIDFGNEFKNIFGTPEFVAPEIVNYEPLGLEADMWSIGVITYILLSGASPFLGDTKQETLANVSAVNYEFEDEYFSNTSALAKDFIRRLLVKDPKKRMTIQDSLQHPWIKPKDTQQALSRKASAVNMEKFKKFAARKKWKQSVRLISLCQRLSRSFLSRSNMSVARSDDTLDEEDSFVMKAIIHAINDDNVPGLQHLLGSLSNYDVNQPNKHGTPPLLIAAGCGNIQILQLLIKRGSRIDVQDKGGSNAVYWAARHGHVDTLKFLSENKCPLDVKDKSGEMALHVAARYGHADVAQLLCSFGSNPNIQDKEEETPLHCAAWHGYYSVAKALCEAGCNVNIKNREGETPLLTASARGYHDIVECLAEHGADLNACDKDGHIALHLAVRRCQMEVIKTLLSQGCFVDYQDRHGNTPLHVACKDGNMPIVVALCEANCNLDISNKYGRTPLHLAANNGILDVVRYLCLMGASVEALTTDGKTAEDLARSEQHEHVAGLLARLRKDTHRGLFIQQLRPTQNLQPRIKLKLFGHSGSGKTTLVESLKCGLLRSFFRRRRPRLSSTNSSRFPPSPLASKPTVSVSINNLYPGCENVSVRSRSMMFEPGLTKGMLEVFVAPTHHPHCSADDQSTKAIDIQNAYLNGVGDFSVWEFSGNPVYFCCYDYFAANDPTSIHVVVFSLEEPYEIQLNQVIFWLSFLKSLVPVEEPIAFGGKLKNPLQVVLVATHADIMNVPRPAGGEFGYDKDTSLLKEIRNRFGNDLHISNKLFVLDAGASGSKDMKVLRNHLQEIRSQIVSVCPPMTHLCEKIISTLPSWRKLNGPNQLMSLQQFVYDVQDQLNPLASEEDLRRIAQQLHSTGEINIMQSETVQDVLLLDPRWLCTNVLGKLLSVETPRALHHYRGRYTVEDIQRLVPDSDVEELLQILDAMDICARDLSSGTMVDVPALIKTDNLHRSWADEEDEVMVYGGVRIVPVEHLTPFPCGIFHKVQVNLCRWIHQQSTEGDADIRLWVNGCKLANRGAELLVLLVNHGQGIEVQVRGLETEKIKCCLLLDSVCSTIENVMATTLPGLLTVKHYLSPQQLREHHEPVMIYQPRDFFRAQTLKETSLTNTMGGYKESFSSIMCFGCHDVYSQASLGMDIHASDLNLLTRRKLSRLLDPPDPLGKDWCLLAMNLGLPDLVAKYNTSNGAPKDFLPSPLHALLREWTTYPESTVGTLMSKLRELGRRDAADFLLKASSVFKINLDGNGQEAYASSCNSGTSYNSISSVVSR
Sequence of Tyrosine-protein kinase HCK (P08631 whole entry, looked up): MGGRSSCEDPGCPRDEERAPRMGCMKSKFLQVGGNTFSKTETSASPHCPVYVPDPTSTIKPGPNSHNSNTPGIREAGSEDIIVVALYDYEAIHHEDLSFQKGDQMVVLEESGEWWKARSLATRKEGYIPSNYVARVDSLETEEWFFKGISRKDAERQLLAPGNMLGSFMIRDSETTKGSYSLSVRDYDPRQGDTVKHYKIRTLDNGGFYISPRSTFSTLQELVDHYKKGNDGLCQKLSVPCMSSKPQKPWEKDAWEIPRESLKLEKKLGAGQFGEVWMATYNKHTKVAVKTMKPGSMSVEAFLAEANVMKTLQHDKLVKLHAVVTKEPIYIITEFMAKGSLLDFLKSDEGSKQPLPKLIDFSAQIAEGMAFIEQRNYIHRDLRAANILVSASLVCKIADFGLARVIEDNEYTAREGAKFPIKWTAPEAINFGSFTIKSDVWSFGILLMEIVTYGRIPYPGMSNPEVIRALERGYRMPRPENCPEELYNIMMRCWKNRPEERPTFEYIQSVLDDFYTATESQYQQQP
Sequence of Rho-associated protein kinase 2 (Homo sapiens) (O75116 whole entry, looked up): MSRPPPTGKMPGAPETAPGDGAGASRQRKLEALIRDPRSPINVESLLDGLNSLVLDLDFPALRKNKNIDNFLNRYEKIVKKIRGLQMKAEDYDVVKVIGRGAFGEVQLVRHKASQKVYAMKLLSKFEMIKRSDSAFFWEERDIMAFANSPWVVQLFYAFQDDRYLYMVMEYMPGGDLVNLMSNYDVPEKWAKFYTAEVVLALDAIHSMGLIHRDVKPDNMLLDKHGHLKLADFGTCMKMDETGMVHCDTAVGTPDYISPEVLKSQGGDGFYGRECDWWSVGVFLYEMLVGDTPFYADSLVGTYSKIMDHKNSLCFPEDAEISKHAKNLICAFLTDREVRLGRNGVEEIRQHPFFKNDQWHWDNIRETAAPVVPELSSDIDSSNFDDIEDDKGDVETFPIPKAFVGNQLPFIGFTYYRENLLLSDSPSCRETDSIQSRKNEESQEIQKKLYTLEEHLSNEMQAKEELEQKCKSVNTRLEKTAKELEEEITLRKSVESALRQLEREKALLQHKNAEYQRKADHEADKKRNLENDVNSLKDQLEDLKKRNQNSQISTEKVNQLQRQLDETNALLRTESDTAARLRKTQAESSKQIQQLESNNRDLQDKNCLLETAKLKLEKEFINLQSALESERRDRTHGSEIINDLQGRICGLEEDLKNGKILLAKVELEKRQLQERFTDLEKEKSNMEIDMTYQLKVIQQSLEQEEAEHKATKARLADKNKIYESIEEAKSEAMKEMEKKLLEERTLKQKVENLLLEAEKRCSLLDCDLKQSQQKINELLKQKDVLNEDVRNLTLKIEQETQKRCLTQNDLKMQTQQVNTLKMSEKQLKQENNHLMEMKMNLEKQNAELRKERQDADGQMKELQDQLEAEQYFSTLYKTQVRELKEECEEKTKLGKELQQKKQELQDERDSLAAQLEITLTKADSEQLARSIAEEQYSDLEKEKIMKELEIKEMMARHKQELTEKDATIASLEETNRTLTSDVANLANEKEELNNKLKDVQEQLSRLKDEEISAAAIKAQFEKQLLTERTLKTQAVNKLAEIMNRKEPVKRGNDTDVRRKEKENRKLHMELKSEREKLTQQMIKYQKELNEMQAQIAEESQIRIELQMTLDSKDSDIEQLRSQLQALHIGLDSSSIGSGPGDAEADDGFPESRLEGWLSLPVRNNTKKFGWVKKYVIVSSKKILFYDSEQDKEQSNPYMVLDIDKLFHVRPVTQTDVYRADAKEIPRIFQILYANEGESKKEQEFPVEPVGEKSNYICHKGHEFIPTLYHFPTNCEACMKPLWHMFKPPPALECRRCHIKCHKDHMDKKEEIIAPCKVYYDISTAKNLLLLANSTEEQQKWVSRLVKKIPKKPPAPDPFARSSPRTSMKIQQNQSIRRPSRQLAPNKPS
Sequence of Casein kinase I isoform alpha (Homo sapiens) (P48729 2-337 limits assumed): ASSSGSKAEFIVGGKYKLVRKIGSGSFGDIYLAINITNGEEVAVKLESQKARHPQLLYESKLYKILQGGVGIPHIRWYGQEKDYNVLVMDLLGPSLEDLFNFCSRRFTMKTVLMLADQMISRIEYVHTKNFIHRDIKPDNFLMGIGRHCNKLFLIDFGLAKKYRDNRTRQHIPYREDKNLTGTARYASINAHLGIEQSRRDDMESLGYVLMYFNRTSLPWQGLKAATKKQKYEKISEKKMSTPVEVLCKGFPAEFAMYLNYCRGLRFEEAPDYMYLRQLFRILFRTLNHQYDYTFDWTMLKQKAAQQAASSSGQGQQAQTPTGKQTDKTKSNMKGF
Sequence of Proto-oncogene tyrosine-protein kinase Src (P12931 whole entry, looked up): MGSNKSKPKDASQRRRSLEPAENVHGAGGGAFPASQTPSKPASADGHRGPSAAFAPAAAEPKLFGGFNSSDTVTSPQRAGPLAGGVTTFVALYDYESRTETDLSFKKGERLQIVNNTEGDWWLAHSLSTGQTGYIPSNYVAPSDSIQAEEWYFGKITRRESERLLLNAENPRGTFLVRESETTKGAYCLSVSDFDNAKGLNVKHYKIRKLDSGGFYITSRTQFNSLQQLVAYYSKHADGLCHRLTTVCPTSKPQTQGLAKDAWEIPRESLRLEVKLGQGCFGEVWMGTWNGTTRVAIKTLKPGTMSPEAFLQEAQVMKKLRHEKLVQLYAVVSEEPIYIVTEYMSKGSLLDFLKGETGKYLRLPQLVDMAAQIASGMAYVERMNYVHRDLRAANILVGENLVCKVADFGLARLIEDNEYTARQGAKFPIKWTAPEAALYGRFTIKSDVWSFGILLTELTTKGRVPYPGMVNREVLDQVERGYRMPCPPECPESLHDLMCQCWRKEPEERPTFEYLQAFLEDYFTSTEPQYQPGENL
Sequence of Serine/threonine-protein phosphatase 2A activator (Homo sapiens) (Q15257 whole entry, canonical isoform): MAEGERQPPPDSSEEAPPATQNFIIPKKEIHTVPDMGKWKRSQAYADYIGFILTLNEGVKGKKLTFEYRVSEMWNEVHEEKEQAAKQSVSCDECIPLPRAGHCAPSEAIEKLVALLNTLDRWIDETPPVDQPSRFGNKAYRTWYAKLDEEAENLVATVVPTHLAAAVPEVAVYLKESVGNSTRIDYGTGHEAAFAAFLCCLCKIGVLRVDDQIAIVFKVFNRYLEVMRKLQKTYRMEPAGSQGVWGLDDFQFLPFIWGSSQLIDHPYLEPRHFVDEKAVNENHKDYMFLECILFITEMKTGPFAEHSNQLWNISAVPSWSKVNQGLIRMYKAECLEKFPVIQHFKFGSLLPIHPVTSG

`CN1C(=O)c2sccc2N(C)c2nc(Nc3ccc(S(N)(=O)=O)cc3)ncc21` showed a % of control [1] of 0.6%.
`CNC(=O)c1ccc(Nc2ncc(C(F)(F)F)c(NCc3nccnc3N(C)S(C)(=O)=O)n2)cc1` [DEFACTINIB] showed a % of control [2] of 8.3% and a % of control [3] of 8.2%.
`COc1cc2ncn(-c3cc(OCc4ccccc4C(F)(F)F)c(C(N)=O)s3)c2cc1OC` [GW843682X] showed a % of control [4] of 5.3%, a % of control [5] of 4.7% and a % of control [6] of 8.6%.
`CCOc1cn(-c2ccc(F)cc2C)nc1C(=O)Nc1ccc(Oc2ccnc3cc(OC)c(OC)cc23)c(F)c1` was tested, and the % of control [7] was less than 10%, the % of control [8] was less than 10% and the % of control [9] was less than 10%.
Molecule `CN(c1ccnc(CNc2nc(Nc3ccc4c(c3)CC(=O)N4)ncc2C(F)(F)F)n1)S(C)(=O)=O` [PF-00911705] has a % of control [10] of 3.6%, a % of control [11] of 0% and a % of control [12] of 1.2%. It also gave a % of control [13] of 10% and a % of control [14] of 1.4%.
`CC[C@@H]1C(=O)N(C)c2cnc(Nc3ccc(C(=O)NC4CCN(C)CC4)cc3OC)nc2N1C1CCCC1` gave a % of control [15] of 56%, a % of control [16] of 56% and a % of control [17] of 98%. For the same molecule, the % of control [18] was 4.2%.

From ChEMBL document CHEMBL5212743, “Selectivity Literature for EUbOPEN Chemogenomics Library wave 3” (2023)
